Source: patent US11746116B2, “Antibiotic resistance breakers” (KING'S COLLEGE LONDON, priority 2017, dated 2023)
Converted amounts (≈) assume the structure as drawn. Where two headings read alike, the source gives them in different places.

Tested on: Neisseria gonorrhoeae strains

## C[C@H]1COc2c(N3CC[C@@H](Nc4ncccn4)C3)c(F)cc3c(=O)c(C(=O)O)cn1c23 [KSN-82-L22]
ATCC49226, strain ATCC 49226, PEN-I TET-I
  MIC: < 0.0312 µg/mL
ATCC700825, strain ATCC 700825
  MIC: 50 µg/mL (≈ 118 µM)
BAA1833, strain BAA-1833, PEN-I TET-I
  MIC: 50 µg/mL (≈ 118 µM)
BAA1838, strain BAA-1838
  MIC: 50 µg/mL (≈ 118 µM)
CCUG57595, strain CCUG 57595
  MIC: 50 µg/mL (≈ 118 µM)
CCUG57596
  MIC: 0.125 µg/mL (≈ 0.294 µM)
CCUG57597, strain CCUG 57597, FEP-NS FOX-I CAZ-NS CIP-R OFX-R PEN-R TET-R
  MIC: 2 µg/mL (≈ 4.7 µM)
CCUG57598, strain CCUG 57598, FOX-R CAZ-NS CRO-NS CIP-R OFX-R PEN-R TET-R
  MIC: 2 µg/mL (≈ 4.7 µM)
CCUG57599, strain CCUG 57599, CIP-R OFX-R PEN-R TET-R
  MIC: 0 to 5 µg/mL
CCUG57600, strain CCUG 57600, CIP-R OFX-R PEN-R TET-R
  MIC: 1 µg/mL (≈ 2.35 µM)
CCUG57601, strain CCUG 57601, PEN-R TET-R
  MIC: < 0.0312 µg/mL
CCUG57602, strain CCUG 57602, PEN-I TET-I
  MIC: 0.0625 µg/mL (≈ 0.147 µM)
NCTC13817, strain NCTC 13817, PEN-R TET-I
  MIC: 0 to 5 µg/mL
NCTC13818, strain NCTC 13818, CIP-R OFX-R PEN-R TET-R
  MIC: 2 µg/mL (≈ 4.7 µM)
NCTC13819, strain NCTC 13819, FEP-NS CAZ-NS CIP-R OFX-R PEN-R TET-I
  MIC: 2 µg/mL (≈ 4.7 µM)
NCTC13820, strain NCTC 13820, FEP-NS CFM-NS CAZ-NS CRO-NS CIP-R OFX-R PEN-R TET-R
  MIC: 2 µg/mL (≈ 4.7 µM)
NCTC13821, strain NCTC 13821, FEP-NS CFM-NS CAZ-NS CRO-NS CIP-R PEN-I TET-I
  MIC: 2 µg/mL (≈ 4.7 µM)
NCTC13822, strain NCTC 13822, FEP-NS CFM-NS CAZ-NS CIP-R OFX-R PEN-R TET-I
  MIC: 2 µg/mL (≈ 4.7 µM)
Strain 2007NG046, PEN-R CFM-R CPD-R CIP-R
  MIC: 4 µg/mL (≈ 9.4 µM)
Strain 2008NG057, PEN-R CFM-R CPD-R CIP-R
  MIC: 2 µg/mL (≈ 4.7 µM)
Strain 2008NG097, PEN-R CFM-R CPD-R CIP-R
  MIC: 2 µg/mL (≈ 4.7 µM)
Strain 2009NG514, PEN-R CPD-R CIP-R
  MIC: 2 µg/mL (≈ 4.7 µM)
Strain 2010NG122, PEN-R CFM-R CIP-R
  MIC: 2 µg/mL (≈ 4.7 µM)
Strain FDA-CDC AR-BANK#0165, CIP-R PEN-I TET-R
  MIC: 2 µg/mL (≈ 4.7 µM)
Strain FDA-CDC AR-BANK#0166, CIP-R PEN-I TET-R
  MIC: 2 µg/mL (≈ 4.7 µM)
Strain FDA-CDC AR-BANK#0167, CIP-S PEN-S TET-I
  MIC: < 0.0312 µg/mL
Strain FDA-CDC AR-BANK#0168, CIP-R PEN-I TET-R
  MIC: 1 µg/mL (≈ 2.35 µM)
Strain FDA-CDC AR-BANK#0169, CIP-R PEN-I TET-R
  MIC: 2 µg/mL (≈ 4.7 µM)
Strain FDA-CDC AR-BANK#0170, CIP-R PEN-I TET-R
  MIC: 2 µg/mL (≈ 4.7 µM)
Strain FDA-CDC AR-BANK#0171, CIP-R PEN-I TET-R
  MIC: 1 µg/mL (≈ 2.35 µM)
Strain FDA-CDC AR-BANK#0172, CIP-R PEN-R TET-R
  MIC: 1 µg/mL (≈ 2.35 µM)
Strain FDA-CDC AR-BANK#0173, CIP-R PEN-R TET-R
  MIC: 2 µg/mL (≈ 4.7 µM)
Strain FDA-CDC AR-BANK#0174, CIP-R PEN-R TET-R
  MIC: 2 µg/mL (≈ 4.7 µM)
Strain FDA-CDC AR-BANK#0175, CIP-S PEN-I TET-I
  MIC: < 0.0312 µg/mL
Strain FDA-CDC AR-BANK#0176, CIP-R PEN-R TET-R
  MIC: 2 µg/mL (≈ 4.7 µM)
Strain FDA-CDC AR-BANK#0177, CIP-S PEN-I TET-R
  MIC: < 0.0312 µg/mL
Strain FDA-CDC AR-BANK#0178, CIP-R PEN-R TET-R
  MIC: 2 µg/mL (≈ 4.7 µM)
Strain FDA-CDC AR-BANK#0179, CIP-S PEN-S TET-I
  MIC: < 0.0312 µg/mL
Strain FDA-CDC AR-BANK#0180, CIP-R PEN-I TET-R
  MIC: 2 µg/mL (≈ 4.7 µM)
Strain FDA-CDC AR-BANK#0181, CIP-S PEN-I TET-R
  MIC: < 0.0312 µg/mL
Strain FDA-CDC AR-BANK#0182, CIP-R PEN-I TET-R
  MIC: 2 µg/mL (≈ 4.7 µM)
Strain FDA-CDC AR-BANK#0183, CIP-R PEN-R TET-R
  MIC: 2 µg/mL (≈ 4.7 µM)
Strain FDA-CDC AR-BANK#0184, CIP-R PEN-R TET-R
  MIC: 2 µg/mL (≈ 4.7 µM)
Strain FDA-CDC AR-BANK#0185, CIP-R PEN-I TET-R
  MIC: 2 µg/mL (≈ 4.7 µM)
Strain FDA-CDC AR-BANK#0186, CIP-R PEN-R TET-R
  MIC: 1 µg/mL (≈ 2.35 µM)
Strain FDA-CDC AR-BANK#0187, CIP-R PEN-I TET-R
  MIC: 2 µg/mL (≈ 4.7 µM)
Strain FDA-CDC AR-BANK#0188, CIP-R PEN-I TET-R
  MIC: 1 µg/mL (≈ 2.35 µM)
Strain FDA-CDC AR-BANK#0189, CIP-R PEN-R TET-R
  MIC: 2 µg/mL (≈ 4.7 µM)
Strain FDA-CDC AR-BANK#0190, CIP-R PEN-R TET-R
  MIC: 2 µg/mL (≈ 4.7 µM)
Strain FDA-CDC AR-BANK#0191, CIP-R PEN-R TET-R
  MIC: 2 µg/mL (≈ 4.7 µM)
